In patent publication US12640239B2, “Functional biomarkers for statin therapy in age-related macular degeneration (AMD)” (APELIOTUS TECHNOLOGIES, INC., priority 2017, dated 2026):

Experiments:
AMD patients [1] = experiment: Visual acuity, standard Snellen or ETDRS eye chart; type: in vivo, human
Description: (§1) Table 2 provides detailed information regarding patients 1 to 7, including the baseline diagnosis (diagnosis made when starting statin therapy), ending diagnosis (the diagnosis made on the date of the last referenced evaluation), the results of evaluations performed on each patient, and whether the patient responded to statin therapy. The dark adaptation data in this Example is the rod intercept time (or RI time) reported in minutes. In this Example, the dark adaptation data was collected using the AdaptDx® Dark Adaptometer (MacuLogix, Middletown, PA) running its standard Extended Test protocol. […] Data is automatically analyzed by the AdaptDx Dark Adaptometer to provide an RI time based on recovery to a criterion sensitivity level of 5×10^−3 scotopic cd/m^2. […] The visual acuity data was collected using a standard Snellen or ETDRS eye chart with the results presented using the standard 20/20 vision scale. Drusen resolution was determined by evaluation of fundus and OCT imaging by qualified clinicians experienced in AMD evaluation. Fundus and OCT imaging data was collected using the Heidelberg Engineering Spectralis® SD-OCT (Heidelberg, Germany) or the Karl Zeiss Meditec Cirrus® HD-OCT (Jena, Germany), in both cases running standard protocols with automated data analysis performed by the instruments.

AMD patients [2] = experiment: Fundus and OCT imaging: drusen resolution, retinal thickness and volume; type: in vivo, human; details: for Average retinal thickness / Average total volume (retina) / Retinal thickness, maximum / Retinal thickness, minimum: Patient 2, atorvastatin 80 mg/day; for OCT retinal imaging finding: Patient 5, atorvastatin 80 then 20 mg/day, April 2018 vs January 2014
Description: (§2) The patient was asked to report any perceived changes in visual function during the course of the treatment. […] The self-reported improvement was confirmed at months 15 and 22 of treatment. […] The resolution of the drusen was confirmed by fundus photography and optical coherence tomography (OCT) imaging.
as §1
(§3) The baseline diagnosis and ending diagnosis are the result of clinical assessment by qualified clinicians experienced in evaluation of AMD patients. The clinical assessment was carried out utilizing standard ophthalmic testing, such as, but not limited to, slit-lamp biomicroscopy (including looking for evidence of drusen and pigmentary changes), fundus and OCT imaging (including looking for evidence of drusen and pigmentary changes and calculation of retinal volume and retinal thickness), and testing with a Snellen or ETDRS eye chart (including looking for visual acuity changes that might indicate a change in disease status). Dark adaptation results were not used in the clinical assessment of the baseline or ending diagnosis.

AMD patients [3] = experiment: Clinical assessment of AMD diagnosis and response to statin therapy; type: in vivo, human
Description: AMD status has been determined in the art using a number of recognized grading systems, such as the Beckman AMD Classification System, the Age-Related Eye Disease Study (AREDS) Severity Scale, the AREDS Simplified Severity Scale, the International Classification and Grading System for AMD, and the Wisconsin Age-Related Maculopathy Grading System. When a determination of AMD status is required for a subject, the determination of AMD status is made using the Beckman AMD Classification System (Ferris et al. Ophthalmology 2013; 120:844-851).
as §1, §3
Patients 1, 3-5 and 7 were determined to be non-responders to statin treatment as the initial diagnosis was unchanged after treatment and clinical evaluation. […] For patient 2, RI time improved by 1.67 minutes OD and 2.60 minutes OS agreeing with the clinical assessment of a response to statin therapy (i.e., improving clinically). Patient 6 could not be clearly classified as a responder or non-responder to statin treatment. […] For patient 6, RI time decreased by 2.2 minutes OD, agreeing with the initial clinical signs of a response to statin therapy.

[4] = system: patient having intermediate AMD; experiment: Patient self-report of perceived changes in visual function during statin treatment; type: in vivo, human
Description: The patient was asked to report any perceived changes in visual function during the course of the treatment.
as §2

AMD patients [5] = details: high-dose atorvastatin; Vavvas et al., 2016; cited from earlier work
[6] = Patient #5, atorvastatin 80 mg/day from January 2014, OD, month 0 (January 2014), baseline
[7] = Patient #5, atorvastatin 80 mg/day from January 2014, OS, month 0 (January 2014), baseline

CC(C)c1c(C(=O)Nc2ccccc2)c(-c2ccccc2)c(-c2ccc(F)cc2)n1CC[C@@H](O)C[C@@H](O)CC(=O)O [atorvastatin]
VA (visual acuity) (AMD patients [1]; Patient #1, atorvastatin 20 to 80 mg/day, OD, month 0 (July 2013), baseline): VA 20/25
VA (visual acuity) (AMD patients [1]; Patient #1, atorvastatin 20 to 80 mg/day, OD, month 59 (June 2018)): VA 20/25
VA (visual acuity) (AMD patients [1]; Patient #1, atorvastatin 20 to 80 mg/day, OS, month 0 (July 2013), baseline): VA 20/32
VA (visual acuity) (AMD patients [1]; Patient #1, atorvastatin 20 to 80 mg/day, OS, month 59 (June 2018)): VA 20/25
VA (visual acuity) (AMD patients [1]; Patient #2, atorvastatin 80 mg/day, OD, month 64 (May 2018)): VA 20/30
VA (visual acuity) (AMD patients [1]; Patient #2, atorvastatin 80 mg/day, OS, month 64 (May 2018)): VA 20/20
VA (visual acuity) (AMD patients [1]; Patient #4, atorvastatin 80 mg/day, OD, month 0 (May 2018), baseline): VA 20/200
VA (visual acuity) (AMD patients [1]; Patient #4, atorvastatin 80 mg/day, OD, month 3 (August 2018)): VA 20/200
VA (visual acuity) (AMD patients [1]; Patient #4, atorvastatin 80 mg/day, OS, month 0 (May 2018), baseline): VA 20/20
VA (visual acuity) (AMD patients [1]; Patient #4, atorvastatin 80 mg/day, OS, month 3 (August 2018)): VA 20/20
VA (visual acuity) (AMD patients [1]; [6]): VA 20/25
VA (visual acuity) (AMD patients [1]; [7]): VA 20/25
Drusen resolution (AMD patients [2]; Example 1: adult female, intermediate AMD, oral atorvastatin increasing to 80 mg per day over six months): eventual resolution of the drusen
Drusen resolution (ophthalmic examination, fundus photography, OCT) (AMD patients [2]; Example 2: adult person, intermediate AMD, oral atorvastatin 10 to 80 mg per day, month 15): substantially complete resolution of the drusen
Average retinal thickness (AMD patients [2]; left eye, August 2016 OCT): 193 µm
Average total volume (retina) (AMD patients [2]; left eye, August 2016 OCT): 8.2 mm^3
Retinal thickness, maximum (AMD patients [2]; left eye, August 2016 OCT): 291 µm
Retinal thickness, minimum (AMD patients [2]; left eye, August 2016 OCT): 191 µm
Average retinal thickness (AMD patients [2]; left eye, February 2016 OCT): 364 µm
Average total volume (retina) (AMD patients [2]; left eye, February 2016 OCT): 8.45 mm^3
Retinal thickness, maximum (AMD patients [2]; left eye, February 2016 OCT): 457 µm
Retinal thickness, minimum (AMD patients [2]; left eye, February 2016 OCT): 217 µm
Average retinal thickness (AMD patients [2]; right eye, August 2015 OCT): 179 µm
Average total volume (retina) (AMD patients [2]; right eye, August 2015 OCT): 8.49 mm^3
Retinal thickness, maximum (AMD patients [2]; right eye, August 2015 OCT): 461 µm
Retinal thickness, minimum (AMD patients [2]; right eye, August 2015 OCT): 176 µm
Average retinal thickness (AMD patients [2]; right eye, December 2015 OCT): 199 µm
Average total volume (retina) (AMD patients [2]; right eye, December 2015 OCT): 8.23 mm^3
Retinal thickness, maximum (AMD patients [2]; right eye, December 2015 OCT): 332 µm
Retinal thickness, minimum (AMD patients [2]; right eye, December 2015 OCT): 170 µm
OCT retinal imaging finding (AMD patients [2]; pravastatin 20 mg/day from April 2018, left eye): development of a PED
OCT retinal imaging finding (AMD patients [2]; pravastatin 20 mg/day from April 2018, right eye): increased drusen accumulation with possible increase in drusen size
Drusen resolution (AMD patients [2]; Patient #1, atorvastatin 20 to 80 mg/day, OU, month 59 (June 2018)): No indication of drusen resolution OU
Decrease in retina volume (AMD patients [2]; Patient #2, atorvastatin 80 mg/day, OD, month 35 (December 2015 vs August 2015)): volume of 0.26 mm^3
Decrease in retina volume (AMD patients [2]; Patient #2, atorvastatin 80 mg/day, OS, month 43 (August 2016 vs February 2016)): volume of 0.25 mm^3
SDD resolution (AMD patients [2]; Patient #3, atorvastatin 80 mg/day, OU, month 19 (May 2018)): No indication of SDD resolution OU
Drusen resolution (AMD patients [2]; Patient #4, atorvastatin 80 mg/day, OU, month 3 (August 2018)): No indication of drusen resolution OU
Drusen resolution (AMD patients [2]; Patient #5, atorvastatin 80 mg/day (suspended January 2015-February 2016), then 20 mg/day, pravastatin 20 mg/day from April 2018, OU, month 51 (April 2018)): No indication of drusen resolution OU
Decrease in retina volume (AMD patients [2]; Patient #6, atorvastatin 80 mg/day, OD, month 9 (August 2018)): volume of 0.09 mm^3
Decrease in retina volume (AMD patients [2]; Patient #6, atorvastatin 80 mg/day, OS, month 9 (August 2018)): volume of 0.1 mm^3
Drusen resolution (AMD patients [2]; Patient #6, atorvastatin 80 mg/day, OU, month 9 (August 2018)): Initial signs of drusen resolution OU
Drusen resolution (AMD patients [2]; Patient #7, atorvastatin 10 to 20 mg/day, OU, month 27 (July 2018)): No indication of drusen resolution OU
Diagnosis (AMD patients [3]; Patient #1, atorvastatin 20 to 80 mg/day from July 2013, OD, month 0 (July 2013), baseline): Intermediate AMD
Diagnosis (AMD patients [3]; Patient #1, atorvastatin 20 to 80 mg/day from July 2013, OS, month 0 (July 2013), baseline): Intermediate AMD
Diagnosis (AMD patients [3]; Patient #1, atorvastatin 20 to 80 mg/day, OD, month 60 (July 2018), ending diagnosis): Intermediate AMD
Diagnosis (AMD patients [3]; Patient #1, atorvastatin 20 to 80 mg/day, OS, month 60 (July 2018), ending diagnosis): Intermediate AMD
Responder (AMD patients [3]; Patient #1, atorvastatin 20 to 80 mg/day, month 60 (July 2018)): No
Diagnosis (AMD patients [3]; Patient #2, atorvastatin 80 mg/day from January 2013, OD, month 0 (January 2013), baseline): Intermediate AMD
Diagnosis (AMD patients [3]; Patient #2, atorvastatin 80 mg/day from January 2013, OS, month 0 (January 2013), baseline): Intermediate AMD
Diagnosis (AMD patients [3]; Patient #2, atorvastatin 80 mg/day, OD, month 66 (July 2018), ending diagnosis): Early AMD
Diagnosis (AMD patients [3]; Patient #2, atorvastatin 80 mg/day, OS, month 66 (July 2018), ending diagnosis): Early AMD
Responder (AMD patients [3]; Patient #2, atorvastatin 80 mg/day, month 66 (July 2018)): Yes
Diagnosis (AMD patients [3]; Patient #3, atorvastatin 80 mg/day from October 2016, OD, month 0 (October 2016), baseline): Late AMD (CNV)
Diagnosis (AMD patients [3]; Patient #3, atorvastatin 80 mg/day, OD, month 20 (June 2018), ending diagnosis): Late AMD (CNV)
Responder (AMD patients [3]; Patient #3, atorvastatin 80 mg/day, month 20 (June 2018)): No
Diagnosis (AMD patients [3]; Patient #4, atorvastatin 80 mg/day from May 2018, OD, month 0 (May 2018), baseline): Late AMD (GA)
Diagnosis (AMD patients [3]; Patient #4, atorvastatin 80 mg/day from May 2018, OS, month 0 (May 2018), baseline): Intermediate AMD
Diagnosis (AMD patients [3]; Patient #4, atorvastatin 80 mg/day, OD, month 4 (September 2018), ending diagnosis): Late AMD (GA)
Diagnosis (AMD patients [3]; Patient #4, atorvastatin 80 mg/day, OS, month 4 (September 2018), ending diagnosis): Intermediate AMD
Responder (AMD patients [3]; Patient #4, atorvastatin 80 mg/day, month 4 (September 2018)): No
Diagnosis (AMD patients [3]; Patient #5, atorvastatin 80 mg/day (suspended January 2015-February 2016), then 20 mg/day, pravastatin 20 mg/day from April 2018, OD, month 52 (June 2018), ending diagnosis): Intermediate AMD
Diagnosis (AMD patients [3]; Patient #5, atorvastatin 80 mg/day (suspended January 2015-February 2016), then 20 mg/day, pravastatin 20 mg/day from April 2018, OS, month 52 (June 2018), ending diagnosis): Intermediate AMD
Responder (AMD patients [3]; Patient #5, atorvastatin 80 mg/day (suspended January 2015-February 2016), then 20 mg/day, pravastatin 20 mg/day from April 2018, month 52 (June 2018)): No
Diagnosis (AMD patients [3]; [6]): Intermediate AMD
Diagnosis (AMD patients [3]; [7]): Intermediate AMD
Diagnosis (AMD patients [3]; Patient #6, atorvastatin 80 mg/day from November 2017, OD, month 0 (November 2017), baseline): Intermediate AMD
Diagnosis (AMD patients [3]; Patient #6, atorvastatin 80 mg/day from November 2017, OS, month 0 (November 2017), baseline): Intermediate AMD
Diagnosis (AMD patients [3]; Patient #6, atorvastatin 80 mg/day, OD, month 9 (August 2018), ending diagnosis): Intermediate AMD
Diagnosis (AMD patients [3]; Patient #6, atorvastatin 80 mg/day, OS, month 9 (August 2018), ending diagnosis): Intermediate AMD
Responder (AMD patients [3]; Patient #6, atorvastatin 80 mg/day, month 9 (August 2018)): Maybe
Diagnosis (AMD patients [3]; Patient #7, atorvastatin 10 to 20 mg/day from April 2016, OD, month 0 (April 2016), baseline): Intermediate AMD
Diagnosis (AMD patients [3]; Patient #7, atorvastatin 10 to 20 mg/day from April 2016, OS, month 0 (April 2016), baseline): Intermediate AMD
Diagnosis (AMD patients [3]; Patient #7, atorvastatin 10 to 20 mg/day, OD, month 27 (July 2018), ending diagnosis): Intermediate AMD
Diagnosis (AMD patients [3]; Patient #7, atorvastatin 10 to 20 mg/day, OS, month 27 (July 2018), ending diagnosis): Intermediate AMD
Responder (AMD patients [3]; Patient #7, atorvastatin 10 to 20 mg/day, month 27 (July 2018)): No
Self-reported change in contrast sensitivity ([4]; Example 1: adult female, oral atorvastatin increasing to 80 mg per day over six months, no objective testing): improvement in contrast sensitivity
Self-reported change in dark adaptation ([4]; Example 2: adult person, oral atorvastatin 10 to 80 mg per day for 23 months, month 7, confirmed at months 15 and 22, no objective testing): improvement in dark adaptation
Patients treated with disappearance of drusen deposits and improvement in vision (AMD patients [5]): 43%
